# Patent publication US10172911B2, “Methods of modulating erythropoiesis with arginine vasopressin receptor 1B molecules” (The United States of America, as represented by the …, priority 2013, dated 2019)
# “Also recorded” adds a separate entry of the source.
# Columns and labels:
# human CD34^+ cells = assay: Brattleboro/LE rat BMSC and human CD34+ progenitor co-culture, BrdU; format: cell-based; conditions: AVP 10^−13 M
# Description: Rat BMSCs were isolated and cultured from the bone marrow of 5-6 weeks old male Brattleboro (animals that lack the ability to produce vasopressin) and Long-Evans rats (control strain for the Brattleboro rats) as described before. For flow cytometry studies, 100000 rat BMSCs per well were plated in αMEM medium (20% FBS) in 12 well plates in quadruplicates and incubated overnight. Next day, medium was removed and 200000 human CD34 cells per well were added in Stemspan medium with factors (human SCF, TPO, FLT3L and G-CSF 100 ng/ml). Co-culture was stimulated with AVP or left unstimulated (PBS) and next day BrdU was added. After 24 hours the cells were trypsinized, brought up in αMEM (20% FBS), resuspended and strained through 70 μm cell strainer. For normalization, Sigma beads were added to each sample tube. Cells were washed with FACS buffer and stained for human CD34 and CD38. The subsequent steps were done according to the BD BrdU Flow kit protocol. At flow cytometry measurements, cell numbers were normalized to Sigma bead numbers.
# mice [1] = assay: Phenylhydrazine (hemolytic) anemia model; format: in vivo, mouse; conditions: day 2 and day 4
# Description: Phenylhydrazine, a known hemolytic agent, was injected intraperitoneally by administration of phenylhydrazine hydrochloride ip. 50 mg/kg body wt. (injection volume range of 100-150 μls) on day 0 and 1 and then mice were implanted with ALZET micro-osmotic pumps as described above to deliver AVP or vehicle. Blood samples were taken at 2, 4 and in some cases 6 and 14 days later to determine hematocrit and corrected reticulocyte values.
# mice [2] = assay: Single intraperitoneal AVP injection, bone marrow populations 16 hours later; format: in vivo, mouse; conditions: i.p. 100 μg/kg, bone marrow 16 hours later
# Description: Short-term effect of a single intraperitoneal AVP injection: [Arg8]-Vasopressin (Ana-spec) (100 μg/kg body weight) together with 20 mg/kg body weight o-phenantroline (Sigma-Aldrich) or vehicle PBS with 20 mg/kg body weight o-phenantroline. 16 hours later bone marrow (two hind limbs) and spleen cells were obtained to study the distribu-tion of HSCs and multipotent progenitors (MPP) as well as intermediate lineage-com-mitted progenitors and the erythroid populations as described before (n=5/group) (Wilson et al. Cell 135, 1118-1129, doi:10.1016/j.cell.2008.10.048 (2008); Pronk, C. J. et al. Cell Stem Cell 1, 428-442, doi:10.1016/j.stem.2007.07.005 (2007); Weissman, I. L. Cell 100, 157-168 (2000). Serial AVP injections: Mice (n=8-9) were injected ip. 2 times/day with AVP 100 μg/kg body weight or PBS for 6.5 days. After day 6.5, mice were euthanized and the erythroid populations (CD71^+, Ter119^+) in spleen and bone marrow were analyzed (Cheshier, S. H. et al., Stem Cells Dev 16, 707-717, doi:10.1089/scd.2007.0017 (2007).
# [3] = test system: CD34^+ cells from healthy donors; assay: CFU assay (E-CFU, GM-CFU) of human CD34+ cells in Methocult; format: cell-based; conditions: per 1000 plated CD34+ cells; 10^−8 M
# Description: CD34^+ cells from healthy donors were plated into semi-solid methylcellulose medium (Methocult) containing hematopoietic factors (GM-CSF 5 ng/ml, IL-3 5 ng/ml, SCF 50 ng/ml, EPO 2.5 U/ml).
# The number of erythroid colony forming units (E-CFU) and granulocyte-macrophage colony forming units (GM-CFU) were determined based on morphological criteria on 7th and 14th days in culture.
# [4] = test system: mouse bone marrow LSK cells; assay: BrdU cell proliferation assay, sorted mouse bone marrow LSK cells; format: cell-based; conditions: 10^−8M-10^−14M, 2 days culture
# Description: Sorted mouse bone marrow LSK cells (10000 cells/well) were plated in a 96 well plate in Stemspan serum free expansion medium ([…] Technologies, Vancouver, Canada) with Pen/Strep, and the following hematopoietic factors: 100 ng/ml TPO, 50 ng/ml FLT3L, 50 ng/ml IL-3 and SCF 100 ng/ml (Peprotech, Rocky Hill, N.J.). Cells were treated with […] (Sigma-Aldrich, St. Louis, Mo.). When using human CD34^+ cells (5000 cells/well), human SCF, TPO, FLT3L and G-CSF (Peprotech, each at 50-100 ng/ml) were added to the Stemspan medium. Cells were treated with 10^−8M-10^−14M AVP. After 24 hours, BrdU at a 1:1000 concentration was added to the cultures and incorporation of BrdU was measured using the Cell Proliferation ELISA BrdU kit (Roche, Mannheim, Germany) after another 24 hours of incubation.
# mice [5] = assay: Sublethal irradiation anemia model; format: in vivo, mouse
# Description: Mice were irradiated with 4.5 Grays, and 24 hours later mice were implanted with ALZET micro-osmotic pumps as described above to deliver AVP or vehicle. Mice were treated with Trimethoprim and Sulfamethoxazole (Bactrim, Septra) for 7 days before irradiation and continued the treatment for 4 weeks after irradiation. Using a pediatric formulation, the stock concentration contains 40 mg/5 ml Trimethoprim and 200 mg/5 ml Sulfa, so that the treated drinking water will deliver 0.13 mg/ml trimethoprim and 0.67 mg/ml sulfa to the mice.
# WT mice = assay: AVP infusion in unmanipulated WT mice; format: in vivo, mouse; conditions: infused over a 3 week period
# Human BMSCs = assay: BMSC signalling (ERK phosphorylation, cAMP, intracellular Ca2+); format: cell-based; conditions: BMSC cultures
# Description: For cAMP quantitation, 8×10^5 per well human BMSCs were plated in 6 well plates and left to attach overnight. Next day, the medium was changed and the cells were stimulated with AVP or deamino-Cys^1, D-Arg^8 AVP (DDAVP, a V2 receptor agonist) at 10^−6 M for 4 minutes. Cells were washed with PBS and lysed with R&D cell lysis buffer. Cyclic AMP was measured with the R&D cAMP Parameter assay kit (R&D Systems, Minneapolis, Minn.) according to manufacturer's instructions. Total protein concentrations of the cell lysates were measured using the Micro BCA Protein Assay kit (Pierce, Rockford, Ill.) and cAMP amount was normalized to 100 μg of total protein.
# [6] = test system: human CD34+ hematopoietic progenitors; assay: Intracellular Ca2+ measurement in Fura-2 loaded human CD34+ hematopoietic progenitors; format: cell-based; conditions: human CD34+ cells, agonist stimulation
# Description: Human BMSCs were loaded with Fura-2 and the cells were stimulated with AVP, or OXT. Intracellular Ca^2+ concentration was assayed as described before (Ely, J. A. et al. J Biol Chem 266, 18635-18641 (1991). To study their response to AVP and specific AVP receptor agonists and antagonists human CD34+ hematopoietic progenitors were Fura-2 loaded and Cytoplasmic Ca2+ measurements were performed in cells kept in suspension using a fluorescence spectrophotometer (Deltascan, Photon Technology International). Ratiometric measurements were recorded at 340/380 nm excitation and 500 nm emission and the ratios were plotted against time. Ionomycin (10 μM) was added at the end of each run to determine the maximum fluorescence ratio.
compound,measurement,setting,value
"NC(=O)CC[C@@H]1NC(=O)[C@H](Cc2ccccc2)NC(=O)[C@H](Cc2ccc(O)cc2)NC(=O)[C@@H](N)CSSC[C@@H](C(=O)N2CCC[C@H]2C(=O)N[C@@H](CCCN=C(N)N)C(=O)NCC(N)=O)NC(=O)[C@H](CC(N)=O)NC1=O [AVP, [Arg8]-Vasopressin]",proliferation of CD34+ cells,human CD34^+ cells; Brattleboro-derived BMSCs,failed to induce proliferation
same,proliferation of CD34+ cells,human CD34^+ cells; LE BMSCs,did cause CD34^+ cells to proliferate
same,"outcome measures (hematocrit, corrected reticulocytes)",mice [1],significantly improved outcome measures on day 2 and to some extent on day 4
same,number of HSCs and early multipotent progenitors (MPPs),mice [2],No difference was detected
same,"number of red blood cell producing progenitors and blast cells (CMP, MEP, proerythroblast, erythroblasts)",mice [2],statistically significant increase
same,erythroid-colony forming unit (E-CFU) numbers,[3],significantly increased; also recorded: increased erythroid colony formation
same,granulocyte macrophage-colony forming unit (GM-CFU) numbers,[3],increased both E-CFU and GM-CFU in another
same,proliferation (BrdU incorporation) of mouse LSK cells,[4],induced proliferation; also recorded: stimulated LSK proliferation; also recorded: significantly increased the proliferation
same,"outcome measures (hematocrit, corrected reticulocytes)","mice [5]; sublethal irradiation, day 2 and day 4",significantly improved outcome measures on day 2 and to some extent on day 4
same,hematocrit and reticulocyte numbers,mice [5]; sublethally irradiated mice,rapid elevations in hematocrit and reticulocyte numbers
same,RBC numbers,WT mice,gradually increased RBC numbers
same,ERK phosphorylation,Human BMSCs,induced ERK phosphorylation
same,cyclic AMP,Human BMSCs; 10^−6 M for 4 minutes,increase in cyclic AMP
same,intracellular calcium levels,[6],increases in their intracellular calcium levels; also recorded: increase in intracellular calcium; also recorded: increased intra-cellular Ca^2+ concentrations
